Experimental data as given in PubChem BioAssay (NCI).
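Assay format: 96-well plates, 48-hour exposure. GI50 = concentration required for 50% inhibition of growth. At the TGI there is no net growth.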

Tests used:
Assay in all cases: NCI anticancer screen, dose series, 48 h
UACC-62 melanoma = system: UACC-62 melanoma
HCT-116 colon = system: HCT-116 colon
OVCAR-5 ovarian = system: OVCAR-5 ovarian
RPMI-8226 leukemia = system: RPMI-8226 leukemia
OVCAR-4 ovarian = system: OVCAR-4 ovarian
PC-3 prostate = system: PC-3 prostate
UACC-257 melanoma = system: UACC-257 melanoma
OVCAR-8 ovarian = system: OVCAR-8 ovarian
EKVX NSCLC = system: EKVX NSCLC
MCF7 breast = system: MCF7 breast
TK-10 renal = system: TK-10 renal
SR leukemia = system: SR leukemia
KM12 colon = system: KM12 colon
SF-295 CNS = system: SF-295 CNS
SK-MEL-5 melanoma = system: SK-MEL-5 melanoma
OVCAR-3 ovarian = system: OVCAR-3 ovarian
U251 CNS = system: U251 CNS
BT-549 breast = system: BT-549 breast
NCI-H460 lung = system: NCI-H460 lung
NCI-H522 lung = system: NCI-H522 lung
CAKI-1 renal = system: CAKI-1 renal
SW-620 colon = system: SW-620 colon
CCRF-CEM leukemia = system: CCRF-CEM leukemia
MOLT-4 leukemia = system: MOLT-4 leukemia
DU-145 prostate = system: DU-145 prostate
SNB-75 CNS = system: SNB-75 CNS
786-0 renal = system: 786-0 renal
NCI/ADR-RES ovarian = system: NCI/ADR-RES ovarian
MDA-MB-231 breast = system: MDA-MB-231 breast
SK-OV-3 ovarian = system: SK-OV-3 ovarian
IGROV1 ovarian = system: IGROV1 ovarian
HS 578T breast = system: HS 578T breast
LOX IMVI melanoma = system: LOX IMVI melanoma
HOP-62 NSCLC = system: HOP-62 NSCLC
HL-60(TB) leukemia = system: HL-60(TB) leukemia
NCI-H226 lung = system: NCI-H226 lung
SF-268 CNS = system: SF-268 CNS
SN12C renal = system: SN12C renal
A549 NSCLC = system: A549 NSCLC
SK-MEL-2 melanoma = system: SK-MEL-2 melanoma
M14 melanoma = system: M14 melanoma
NCI-H23 lung = system: NCI-H23 lung
RXF 393 renal = system: RXF 393 renal
SF-539 CNS = system: SF-539 CNS
MALME-3M melanoma = system: MALME-3M melanoma
UO-31 renal = system: UO-31 renal
COLO 205 colon = system: COLO 205 colon
SNB-19 CNS = system: SNB-19 CNS
T-47D breast = system: T-47D breast
HCC-2998 colon = system: HCC-2998 colon
HCT-15 colon = system: HCT-15 colon
HOP-92 NSCLC = system: HOP-92 NSCLC
HT29 colon = system: HT29 colon
MDA-MB-435 = system: MDA-MB-435
ACHN renal = system: ACHN renal
SK-MEL-28 melanoma = system: SK-MEL-28 melanoma

CCCCCCC/C(=N\N=C(N)N)c1ccc(O)cc1
GI50 (UACC-62 melanoma): 1.55 µM
TGI (UACC-62 melanoma): 3.26 µM
GI50 (HCT-116 colon): 1.67 µM
TGI (HCT-116 colon): 3.41 µM
GI50 (OVCAR-5 ovarian): 3.83 µM
TGI (OVCAR-5 ovarian): 15.3 µM
GI50 (RPMI-8226 leukemia): 1.71 µM
TGI (RPMI-8226 leukemia): 4.3 µM
GI50 (OVCAR-4 ovarian): 1.65 µM
TGI (OVCAR-4 ovarian): 12.3 µM
GI50 (PC-3 prostate): 2.17 µM
TGI (PC-3 prostate): 8.92 µM
GI50 (UACC-257 melanoma): 1.76 µM
TGI (UACC-257 melanoma): 3.81 µM
GI50 (OVCAR-8 ovarian): 2.12 µM
TGI (OVCAR-8 ovarian): 5.26 µM
GI50 (EKVX NSCLC): 2.71 µM
TGI (EKVX NSCLC): 14 µM
GI50 (MCF7 breast): 1.71 µM
TGI (MCF7 breast): 4.43 µM
GI50 (TK-10 renal): 5.53 µM
TGI (TK-10 renal): 18 µM
GI50 (SR leukemia): 1.67 µM
TGI (SR leukemia): 3.96 µM
GI50 (KM12 colon): 1.73 µM
TGI (KM12 colon): 3.52 µM
GI50 (SF-295 CNS): 1.77 µM
TGI (SF-295 CNS): 4.46 µM
GI50 (SK-MEL-5 melanoma): 1.5 µM
TGI (SK-MEL-5 melanoma): 2.82 µM
GI50 (OVCAR-3 ovarian): 2.23 µM
TGI (OVCAR-3 ovarian): 7.84 µM
GI50 (U251 CNS): 1.54 µM
TGI (U251 CNS): 2.87 µM
GI50 (BT-549 breast): 2.41 µM
TGI (BT-549 breast): 8.65 µM
GI50 (NCI-H460 lung): 1.82 µM
TGI (NCI-H460 lung): 3.68 µM
GI50 (NCI-H522 lung): 1.62 µM
TGI (NCI-H522 lung): 3.48 µM
GI50 (CAKI-1 renal): 2.8 µM
TGI (CAKI-1 renal): 11.8 µM
GI50 (SW-620 colon): 1.65 µM
TGI (SW-620 colon): 3.35 µM
GI50 (CCRF-CEM leukemia): 1.96 µM
TGI (CCRF-CEM leukemia): 5.77 µM
GI50 (MOLT-4 leukemia): 1.67 µM
TGI (MOLT-4 leukemia): 4.76 µM
GI50 (DU-145 prostate): 3.15 µM
TGI (DU-145 prostate): 11 µM
GI50 (SNB-75 CNS): 1.58 µM
TGI (SNB-75 CNS): 5.41 µM
GI50 (786-0 renal): 2.16 µM
TGI (786-0 renal): 5.31 µM
GI50 (NCI/ADR-RES ovarian): 10 µM
TGI (NCI/ADR-RES ovarian): 23.2 µM
GI50 (MDA-MB-231 breast): 1.67 µM
TGI (MDA-MB-231 breast): 3.54 µM
GI50 (SK-OV-3 ovarian): 3.04 µM
TGI (SK-OV-3 ovarian): 11.2 µM
GI50 (IGROV1 ovarian): 2.28 µM
TGI (IGROV1 ovarian): 10.7 µM
GI50 (HS 578T breast): 3.14 µM
TGI (HS 578T breast): 24.7 µM
GI50 (LOX IMVI melanoma): 1.62 µM
TGI (LOX IMVI melanoma): 2.97 µM
GI50 (HOP-62 NSCLC): 1.81 µM
TGI (HOP-62 NSCLC): 3.81 µM
GI50 (HL-60(TB) leukemia): 1.75 µM
TGI (HL-60(TB) leukemia): 3.65 µM
GI50 (NCI-H226 lung): 2.2 µM
TGI (NCI-H226 lung): 6.63 µM
GI50 (SF-268 CNS): 1.77 µM
TGI (SF-268 CNS): 5.31 µM
GI50 (SN12C renal): 2.76 µM
TGI (SN12C renal): 11.8 µM
GI50 (A549 NSCLC): 2.88 µM
TGI (A549 NSCLC): 17.2 µM
GI50 (SK-MEL-2 melanoma): 1.96 µM
TGI (SK-MEL-2 melanoma): 3.85 µM
GI50 (M14 melanoma): 1.71 µM
TGI (M14 melanoma): 3.18 µM
GI50 (NCI-H23 lung): 2.6 µM
TGI (NCI-H23 lung): 10.9 µM
GI50 (RXF 393 renal): 1.94 µM
TGI (RXF 393 renal): 5.16 µM
GI50 (SF-539 CNS): 1.91 µM
TGI (SF-539 CNS): 4.4 µM
GI50 (MALME-3M melanoma): 1.77 µM
TGI (MALME-3M melanoma): 3.52 µM
GI50 (UO-31 renal): 2.38 µM
TGI (UO-31 renal): 12.1 µM
GI50 (COLO 205 colon): 1.74 µM
TGI (COLO 205 colon): 3.16 µM
GI50 (SNB-19 CNS): 2.13 µM
TGI (SNB-19 CNS): 10.6 µM
GI50 (T-47D breast): 1.87 µM
TGI (T-47D breast): 4.89 µM
GI50 (HCC-2998 colon): 1.62 µM
TGI (HCC-2998 colon): 3 µM
GI50 (HCT-15 colon): 3.48 µM
TGI (HCT-15 colon): 12.9 µM
GI50 (HOP-92 NSCLC): 0.692 µM
TGI (HOP-92 NSCLC): 3.19 µM
GI50 (HT29 colon): 2.35 µM
TGI (HT29 colon): 6.25 µM
GI50 (MDA-MB-435): 1.71 µM
TGI (MDA-MB-435): 3.44 µM
GI50 (ACHN renal): 2.25 µM
TGI (ACHN renal): 5.13 µM
GI50 (SK-MEL-28 melanoma): 1.73 µM
TGI (SK-MEL-28 melanoma): 3.28 µM
